In ChEMBL document CHEMBL4020771, “Activity of resveratrol triesters against primary acute lymphoblastic leukemia cells” (Bioorg Med Chem Lett, 2017):
The source made the active and inactive calls. The calls are words filed in the database; no cut-off is given here.

Legend:
[1] = Cytotoxicity against human ALL5 cells after 120 hrs by MTT method; assay type: functional, cell-based; details: ALL5, 120 h
[2] = test system: HeLa; assay: Cytotoxicity against human HeLa cells up to 10 uM after 72 hrs by MTT method; assay type: functional, cell-based
[3] = Cell cycle arrest in human ALL5 cells assessed as accumulation at subG1 phase at 17 uM after 48 hrs by propidium iodide staining based flow cytometric analysis (reference value: 3.44 %); assay type: functional
[4] = Cell cycle arrest in human ALL5 cells assessed as accumulation at G1 phase at 17 uM after 48 hrs by propidium iodide staining based flow cytometric analysis (reference value: 70.5 %); assay type: functional
[5] = Cell cycle arrest in human ALL5 cells assessed as accumulation at S phase at 17 uM after 48 hrs by propidium iodide staining based flow cytometric analysis (reference value: 11.7 %); assay type: functional
[6] = Cell cycle arrest in human ALL5 cells assessed as accumulation at G2 phase at 17 uM after 48 hrs by propidium iodide staining based flow cytometric analysis (reference value: 13.6 %); assay type: functional
[7] = Cell cycle arrest in human ALL5 cells assessed as accumulation at subG1 phase at 17 uM after 96 hrs by propidium iodide staining based flow cytometric analysis (reference value: 3.44 %); assay type: functional
[8] = Cell cycle arrest in human ALL5 cells assessed as accumulation at G1 phase at 17 uM after 96 hrs by propidium iodide staining based flow cytometric analysis (reference value: 70.5 %); assay type: functional
[9] = Cell cycle arrest in human ALL5 cells assessed as accumulation at S phase at 17 uM after 96 hrs by propidium iodide staining based flow cytometric analysis (reference value: 11.7 %); assay type: functional
[10] = Cell cycle arrest in human ALL5 cells assessed as accumulation at G2 phase at 17 uM after 96 hrs by propidium iodide staining based flow cytometric analysis (reference value: 13.6 %); assay type: functional
[11] = Cell cycle arrest in human ALL5 cells assessed as accumulation at subG1 phase at 17 uM after 120 hrs by propidium iodide staining based flow cytometric analysis (reference value: 3.44 %); assay type: functional
[12] = Cell cycle arrest in human ALL5 cells assessed as accumulation at G1 phase at 17 uM after 120 hrs by propidium iodide staining based flow cytometric analysis (reference value: 70.5 %); assay type: functional
[13] = Cell cycle arrest in human ALL5 cells assessed as accumulation at S phase at 17 uM after 120 hrs by propidium iodide staining based flow cytometric analysis (reference value: 11.7 %); assay type: functional
[14] = Cell cycle arrest in human ALL5 cells assessed as accumulation at G2 phase at 17 uM after 120 hrs by propidium iodide staining based flow cytometric analysis (reference value: 13.6 %); assay type: functional
[15] = test system: ALL5; assay: Increase in p53 expression in human ALL5 cells at 17 uM after 96 hrs by Western blot analysis; assay type: functional, cell-based
[16] = Cell cycle arrest in human ALL5 cells assessed as accumulation at subG1 phase at 17 uM after 96 hrs in presence of CDK4/6 inhibitor palbociclib by propidium iodide staining based flow cytometric analysis (reference value: 1.47%); assay type: functional
[17] = Cell cycle arrest in human ALL5 cells assessed as accumulation at G1 phase at 17 uM after 96 hrs in presence of CDK4/6 inhibitor palbociclib by propidium iodide staining based flow cytometric analysis (reference value: 97.8%); assay type: functional
[18] = Cell cycle arrest in human ALL5 cells assessed as accumulation at S phase at 17 uM after 96 hrs in presence of CDK4/6 inhibitor palbociclib by propidium iodide staining based flow cytometric analysis (reference value: 0.07%); assay type: functional
[19] = Cell cycle arrest in human ALL5 cells assessed as accumulation at G2 phase at 17 uM after 96 hrs in presence of CDK4/6 inhibitor palbociclib by propidium iodide staining based flow cytometric analysis (reference value: 0.64%); assay type: functional
[20] = Cell cycle arrest in human ALL5 cells assessed as accumulation at subG1 phase at 25 uM after 48 hrs by propidium iodide staining based flow cytometric analysis (reference value: 3.44 %); assay type: functional
[21] = Cell cycle arrest in human ALL5 cells assessed as accumulation at G1 phase at 25 uM after 48 hrs by propidium iodide staining based flow cytometric analysis (reference value: 70.5 %); assay type: functional
[22] = Cell cycle arrest in human ALL5 cells assessed as accumulation at S phase at 25 uM after 48 hrs by propidium iodide staining based flow cytometric analysis (reference value: 11.7 %); assay type: functional
[23] = Cell cycle arrest in human ALL5 cells assessed as accumulation at G2 phase at 25 uM after 48 hrs by propidium iodide staining based flow cytometric analysis (reference value: 13.6 %); assay type: functional
[24] = Cell cycle arrest in human ALL5 cells assessed as accumulation at subG1 phase at 25 uM after 96 hrs by propidium iodide staining based flow cytometric analysis (reference value: 3.44 %); assay type: functional
[25] = Cell cycle arrest in human ALL5 cells assessed as accumulation at G1 phase at 25 uM after 96 hrs by propidium iodide staining based flow cytometric analysis (reference value: 70.5 %); assay type: functional
[26] = Cell cycle arrest in human ALL5 cells assessed as accumulation at S phase at 25 uM after 96 hrs by propidium iodide staining based flow cytometric analysis (reference value: 11.7 %); assay type: functional
[27] = Cell cycle arrest in human ALL5 cells assessed as accumulation at G2 phase at 25 uM after 96 hrs by propidium iodide staining based flow cytometric analysis (reference value: 13.6 %); assay type: functional
[28] = Cell cycle arrest in human ALL5 cells assessed as accumulation at subG1 phase at 25 uM after 120 hrs by propidium iodide staining based flow cytometric analysis (reference value: 3.44 %); assay type: functional
[29] = Cell cycle arrest in human ALL5 cells assessed as accumulation at G1 phase at 25 uM after 120 hrs by propidium iodide staining based flow cytometric analysis (reference value: 70.5 %); assay type: functional
[30] = Cell cycle arrest in human ALL5 cells assessed as accumulation at S phase at 25 uM after 120 hrs by propidium iodide staining based flow cytometric analysis (reference value: 11.7 %); assay type: functional
[31] = Cell cycle arrest in human ALL5 cells assessed as accumulation at G2 phase at 25 uM after 120 hrs by propidium iodide staining based flow cytometric analysis (reference value: 13.6 %); assay type: functional
[32] = test system: ALL5; assay: Increase in p53 expression in human ALL5 cells at 25 uM after 96 hrs by Western blot analysis; assay type: functional, cell-based
[33] = Cell cycle arrest in human ALL5 cells assessed as accumulation at subG1 phase at 25 uM after 96 hrs in presence of CDK4/6 inhibitor palbociclib by propidium iodide staining based flow cytometric analysis (reference value: 1.47%); assay type: functional
[34] = Cell cycle arrest in human ALL5 cells assessed as accumulation at G1 phase at 25 uM after 96 hrs in presence of CDK4/6 inhibitor palbociclib by propidium iodide staining based flow cytometric analysis (reference value: 97.8%); assay type: functional
[35] = Cell cycle arrest in human ALL5 cells assessed as accumulation at S phase at 25 uM after 96 hrs in presence of CDK4/6 inhibitor palbociclib by propidium iodide staining based flow cytometric analysis (reference value: 0.07%); assay type: functional
[36] = Cell cycle arrest in human ALL5 cells assessed as accumulation at G2 phase at 25 uM after 96 hrs in presence of CDK4/6 inhibitor palbociclib by propidium iodide staining based flow cytometric analysis (reference value: 0.64%); assay type: functional

With `O=C(/C=C/c1cccc(O)c1)Oc1ccc(/C=C/c2cc(OC(=O)/C=C/c3cccc(O)c3)cc(OC(=O)/C=C/c3cccc(O)c3)c2)cc1` as the compound, how does the IC50 [1] read?
Its IC50 is 10 µM.

What does the source list for `CC(=O)Oc1ccc(/C=C/c2cc(OC(C)=O)cc(OC(C)=O)c2)cc1` [TRIACETYLRESVERATROL]?
Activity [2]: inactive; Activity [3]: 12.3%; Activity [4]: 62.5%; Activity [5]: 20.8%; Activity [6]: 3.23%; Activity [7]: 54.6%; Activity [8]: 15.5%; Activity [9]: 16%; Activity [10]: 13.1%; Activity [11]: 60.9%; Activity [12]: 18.5%; Activity [13]: 12.5%; Activity [14]: 7.59%; Activity [15]: Active; Activity [16]: 1.33%; Activity [17]: 98.1%; Activity [18]: 0.06%; Activity [19]: 0.54%; IC50 [1]: 3.4 µM

With `O=C(Oc1ccc(/C=C/c2cc(OC(=O)c3c(Cl)cccc3Cl)cc(OC(=O)c3c(Cl)cccc3Cl)c2)cc1)c1c(Cl)cccc1Cl` as the compound, how does the IC50 [1] read?
Its IC50 is > 10 µM.

Which IC50 [1] does the source give for `COc1ccc(/C=C/C(=O)Oc2ccc(/C=C/c3cc(OC(=O)/C=C/c4ccc(OC)c(OC)c4)cc(OC(=O)/C=C/c4ccc(OC)c(OC)c4)c3)cc2)cc1OC` here?
The IC50 was > 10 µM.

Which Activity [2] does the source give for `CC(C)C(=O)Oc1ccc(/C=C/c2cc(OC(=O)C(C)C)cc(OC(=O)C(C)C)c2)cc1` here?
Its Activity is “inactive”.

And the Activity [20]?
The Activity was 23.1%.

What about the Activity [21] of the same compound?
The Activity was 72.5%.

What about the Activity [22] of the same compound?
Its Activity is 2.14%.

What about the Activity [23] of the same compound?
Its Activity is 2.02%.

What about the Activity [24] of the same compound?
The Activity was 48.1%.

What about the Activity [25] of the same compound?
Its Activity is 44.8%.

And the Activity [26]?
Its Activity is 6.34%.

And the Activity [27]?
Its Activity is 0.34%.

What about the Activity [28] of the same compound?
Its Activity is 63.7%.

What about the Activity [29] of the same compound?
Its Activity is 26.1%.

And the Activity [30]?
Its Activity is 9.11%.

And the Activity [31]?
The Activity was 0.49%.

And the Activity [32]?
The Activity was “Active”.

And the Activity [33]?
The Activity was 5.76%.

What about the Activity [34] of the same compound?
The Activity was 93.6%.

And the Activity [35]?
Its Activity is 0.21%.

What about the Activity [36] of the same compound?
The Activity was 0.45%.

What about the IC50 [1] of the same compound?
Its IC50 is 5.1 µM.

Which IC50 [1] does the source give for `COc1cccc(C(=O)Oc2ccc(/C=C/c3cc(OC(=O)c4cccc(OC)c4OC)cc(OC(=O)c4cccc(OC)c4OC)c3)cc2)c1OC` here?
The IC50 was > 10 µM.

With `COc1cc(/C=C/C(=O)Oc2ccc(/C=C/c3cc(OC(=O)/C=C/c4ccc(O)c(OC)c4)cc(OC(=O)/C=C/c4ccc(O)c(OC)c4)c3)cc2)ccc1O` as the compound, how does the IC50 [1] read?
The IC50 was 10 µM.

For `O=C(/C=C/c1ccc(O)cc1)Oc1ccc(/C=C/c2cc(OC(=O)/C=C/c3ccc(O)cc3)cc(OC(=O)/C=C/c3ccc(O)cc3)c2)cc1`, which IC50 [1] is on record?
The IC50 was > 10 µM.

With `CCCCCCCCCC(=O)Oc1ccc(/C=C/c2cc(OC(=O)CCCCCCCCC)cc(OC(=O)CCCCCCCCC)c2)cc1` as the compound, how does the IC50 [1] read?
The IC50 was > 10 µM.
